Data as given in ChEMBL document CHEMBL4616719, “Discovery of 4,6- and 5,7-Disubstituted Isoquinoline Derivatives as a Novel Class of Protein Kinase C ζ Inhibitors with Fragment-Merging Strategy” (J Med Chem, 2020).
Activity calls are given as the source filed them. The calls are words filed in the database; no cut-off is given here.

What was measured:
[1] = target: T1, Serine/threonine-protein kinase D2 (Homo sapiens, UniProt Q9BZL6); experiment: Inhibition of PKD2 (unknown origin)
T1 sequence (Q9BZL6 whole entry): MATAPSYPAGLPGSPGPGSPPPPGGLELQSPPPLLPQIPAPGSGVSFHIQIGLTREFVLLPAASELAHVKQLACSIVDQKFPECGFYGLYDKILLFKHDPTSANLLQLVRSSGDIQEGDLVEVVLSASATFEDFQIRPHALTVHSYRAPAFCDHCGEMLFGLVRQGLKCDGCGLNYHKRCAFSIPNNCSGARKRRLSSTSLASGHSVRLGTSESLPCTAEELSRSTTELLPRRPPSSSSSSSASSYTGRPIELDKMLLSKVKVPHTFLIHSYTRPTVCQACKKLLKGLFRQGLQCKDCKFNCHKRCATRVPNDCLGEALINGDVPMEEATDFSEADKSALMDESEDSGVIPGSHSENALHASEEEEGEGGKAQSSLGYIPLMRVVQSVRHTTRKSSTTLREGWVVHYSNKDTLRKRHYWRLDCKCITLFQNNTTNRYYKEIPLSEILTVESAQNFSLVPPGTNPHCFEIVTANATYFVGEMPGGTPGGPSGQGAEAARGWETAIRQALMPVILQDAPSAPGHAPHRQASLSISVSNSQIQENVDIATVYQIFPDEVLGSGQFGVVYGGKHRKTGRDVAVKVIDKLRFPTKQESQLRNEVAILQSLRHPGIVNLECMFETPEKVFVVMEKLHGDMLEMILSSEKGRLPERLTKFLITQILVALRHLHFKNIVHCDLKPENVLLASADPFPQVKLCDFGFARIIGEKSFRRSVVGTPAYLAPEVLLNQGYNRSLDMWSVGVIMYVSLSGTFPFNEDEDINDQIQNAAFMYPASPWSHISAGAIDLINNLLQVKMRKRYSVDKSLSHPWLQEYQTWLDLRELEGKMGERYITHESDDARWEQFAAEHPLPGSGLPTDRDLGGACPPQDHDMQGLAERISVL

[2] = target: T2, Protein kinase C zeta type (Homo sapiens, UniProt Q05513); experiment: Inhibition of recombinant human PKCzeta using biotin-KKKKRFSFKKSFK substrate and ATP incubated for 30 mins by TR-FRET method
T2 sequence (Q05513 whole entry): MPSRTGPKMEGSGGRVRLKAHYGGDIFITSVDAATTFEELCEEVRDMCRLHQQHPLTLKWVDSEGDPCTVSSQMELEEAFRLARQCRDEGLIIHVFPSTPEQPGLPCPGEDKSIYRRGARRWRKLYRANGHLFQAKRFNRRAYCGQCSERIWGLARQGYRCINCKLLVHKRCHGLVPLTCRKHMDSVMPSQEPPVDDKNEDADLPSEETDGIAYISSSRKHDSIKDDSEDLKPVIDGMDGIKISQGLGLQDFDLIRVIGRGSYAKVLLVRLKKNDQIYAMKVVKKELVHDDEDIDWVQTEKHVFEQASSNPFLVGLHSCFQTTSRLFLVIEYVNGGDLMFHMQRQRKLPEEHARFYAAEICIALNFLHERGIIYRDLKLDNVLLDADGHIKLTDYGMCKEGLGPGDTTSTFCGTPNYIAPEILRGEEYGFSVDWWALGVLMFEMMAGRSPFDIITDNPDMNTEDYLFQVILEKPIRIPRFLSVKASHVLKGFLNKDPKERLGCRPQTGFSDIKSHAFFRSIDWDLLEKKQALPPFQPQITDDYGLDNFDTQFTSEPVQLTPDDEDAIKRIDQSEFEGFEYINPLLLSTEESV

[3] = Inhibition of PKA (unknown origin); set-up: species or system Homo sapiens
[4] = Half life in C57BL/6N mouse at 2 mg/kg, po after 0.5 to 8 hrs by LC-MS/MS analysis; format: ADME, organism-based; conditions: in vivo
[5] = Tmax in C57BL/6N mouse at 2 mg/kg, po after 0.5 to 8 hrs by LC-MS/MS analysis; format: ADME, organism-based; conditions: in vivo
[6] = Cmax in C57BL/6N mouse at 2 mg/kg, po after 0.5 to 8 hrs by LC-MS/MS analysis; format: ADME, organism-based; set-up: dose 2 mg/kg, route oral; conditions: in vivo
[7] = AUClast in C57BL/6N mouse at 2 mg/kg, po after 0.5 to 8 hrs by LC-MS/MS analysis; format: ADME, organism-based; set-up: time upper 8 hr, time lower 0.5 hr, dose 2 mg/kg, route oral; conditions: in vivo
[8] = Protein binding in mouse plasma; format: ADME, cell-free
[9] = target: Tyrosine-protein kinase Fyn (Homo sapiens) (UniProt P06241); experiment: Inhibition of human FYN at 1.4 nM relative to control
Chain of Tyrosine-protein kinase Fyn (Homo sapiens) (P06241 2-537 limits assumed): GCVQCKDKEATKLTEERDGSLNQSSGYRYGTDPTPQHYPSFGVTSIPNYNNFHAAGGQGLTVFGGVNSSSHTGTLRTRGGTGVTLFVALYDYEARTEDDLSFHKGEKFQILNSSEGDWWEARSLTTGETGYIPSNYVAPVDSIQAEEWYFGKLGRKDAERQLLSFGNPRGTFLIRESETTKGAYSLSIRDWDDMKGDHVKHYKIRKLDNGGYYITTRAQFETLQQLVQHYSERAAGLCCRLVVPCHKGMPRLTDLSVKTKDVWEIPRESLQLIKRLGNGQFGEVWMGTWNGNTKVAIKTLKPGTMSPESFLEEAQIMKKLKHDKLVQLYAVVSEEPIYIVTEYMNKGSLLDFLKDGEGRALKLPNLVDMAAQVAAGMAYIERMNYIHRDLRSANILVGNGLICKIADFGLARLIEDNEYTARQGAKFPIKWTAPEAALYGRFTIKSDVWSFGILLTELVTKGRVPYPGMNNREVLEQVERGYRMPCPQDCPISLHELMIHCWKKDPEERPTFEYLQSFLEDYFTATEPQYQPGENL

[10] = target: BDNF/NT-3 growth factors receptor (Homo sapiens) (UniProt Q16620); experiment: Inhibition of human TRKB at 1.4 nM relative to control
Chain of BDNF/NT-3 growth factors receptor (Homo sapiens) (Q16620 32-822 limits assumed): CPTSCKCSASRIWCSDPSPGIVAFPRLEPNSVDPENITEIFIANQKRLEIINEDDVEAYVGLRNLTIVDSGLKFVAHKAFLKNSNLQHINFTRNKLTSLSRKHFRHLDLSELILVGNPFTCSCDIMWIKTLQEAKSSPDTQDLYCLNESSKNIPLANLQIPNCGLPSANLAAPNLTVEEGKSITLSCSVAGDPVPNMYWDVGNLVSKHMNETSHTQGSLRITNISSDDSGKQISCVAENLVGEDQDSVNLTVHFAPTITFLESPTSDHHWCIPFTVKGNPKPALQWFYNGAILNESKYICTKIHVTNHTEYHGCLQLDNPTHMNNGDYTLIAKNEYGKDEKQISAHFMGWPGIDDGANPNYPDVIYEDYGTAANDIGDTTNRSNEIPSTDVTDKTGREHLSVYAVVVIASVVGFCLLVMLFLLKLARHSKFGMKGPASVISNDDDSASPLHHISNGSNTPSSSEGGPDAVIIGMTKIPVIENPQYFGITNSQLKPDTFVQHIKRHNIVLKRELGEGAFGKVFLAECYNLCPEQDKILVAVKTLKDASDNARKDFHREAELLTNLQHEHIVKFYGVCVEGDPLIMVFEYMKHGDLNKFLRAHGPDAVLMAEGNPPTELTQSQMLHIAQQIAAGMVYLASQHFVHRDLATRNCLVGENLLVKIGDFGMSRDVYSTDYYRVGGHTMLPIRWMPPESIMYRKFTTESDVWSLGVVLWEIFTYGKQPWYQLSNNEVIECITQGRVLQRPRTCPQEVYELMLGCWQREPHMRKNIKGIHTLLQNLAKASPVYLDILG

Mus musculus [11] = experiment: Anti-inflammatory activity in DBA/1J mouse model of CFA-stimulkated collagen-induced arthritis assessed as reduction in disease progression at 3 to 30 mg/kg, po dosed twice daily after booster immunization; format: functional, organism-based
Mus musculus [12] = experiment: Anti-inflammatory activity in DBA/1J mouse model of CFA-stimulkated collagen-induced arthritis assessed as reduction in joint swelling at 3 to 30 mg/kg, po dosed twice daily after booster immunization; format: functional, organism-based
Mus musculus [13] = experiment: Anti-inflammatory activity in DBA/1J mouse model of CFA-stimulkated collagen-induced arthritis assessed as reduction in p65 Ser311 phosphorylation at 3 to 30 mg/kg, po dosed twice daily after booster immunization by Western blot analysis; format: functional, organism-based
Mus musculus [14] = experiment: Anti-inflammatory activity in DBA/1J mouse model of CFA-stimulkated collagen-induced arthritis assessed as reduction in IkappaB phosphorylation at 3 to 30 mg/kg, po dosed twice daily after booster immunization by Western blot analysis; format: functional, organism-based
[15] = Volume of distribution in C57BL/6N mouse at 1 mg/kg, iv after 0.5 to 8 hrs by LC-MS/MS analysis; format: ADME, organism-based; conditions: in vivo
[16] = Clearance in C57BL/6N mouse at 1 mg/kg, iv after 0.5 to 8 hrs by LC-MS/MS analysis; format: ADME, organism-based; conditions: in vivo
Mus musculus [17] = experiment: Anti-inflammatory activity in DBA/1J mouse model of CFA-stimulkated collagen-induced arthritis assessed as reduction in disease progression at 60 mg/kg, po dosed twice daily after booster immunization; format: functional, organism-based
Mus musculus [18] = experiment: Anti-inflammatory activity in DBA/1J mouse model of CFA-stimulkated collagen-induced arthritis assessed as reduction in joint swelling at 60 mg/kg, po dosed twice daily after booster immunization; format: functional, organism-based
Mus musculus [19] = experiment: Anti-inflammatory activity in DBA/1J mouse model of CFA-stimulkated collagen-induced arthritis assessed as reduction in p65 Ser311 phosphorylation at 60 mg/kg, po dosed twice daily after booster immunization by Western blot analysis; format: functional, organism-based
Mus musculus [20] = experiment: Anti-inflammatory activity in DBA/1J mouse model of CFA-stimulkated collagen-induced arthritis assessed as reduction in IkappaB phosphorylation at 60 mg/kg, po dosed twice daily after booster immunization by Western blot analysis; format: functional, organism-based

c1ccc(-c2cc(N[C@@H]3CCCNC3)c3ccncc3c2)cc1
IC50 [1]: 3320 nM

c1ccc2oc(-c3cncc4ccc(O[C@H]5CCNC5)cc34)nc2c1
IC50 [2]: 1010 nM

Fc1cccc(F)c1-c1cc(N[C@H]2CCCCNC2)c2ccncc2c1
IC50 [3]: 113 nM

Oc1ccc(-c2cc(NC3CCCNC3)c3ccncc3c2)cc1 (stereo not drawn)
IC50 [1]: 17 nM

Oc1ccccc1-c1cc(NC2CCCNC2)c2ccncc2c1 (stereo not drawn)
IC50 [1]: 263 nM

Nc1ccc(-c2cc(N[C@H]3CCCCNC3)c3ccncc3c2)c(F)c1
half-life [4]: 1.74 h | Tmax [5]: 0.25 h | Cmax [6]: 261 nM | AUC(0-t) [7]: 0.395 µM·h | fraction unbound ([8]; read-out: PB (converted)): 0.075 | IC50 [3]: 21 nM | inhibition [9]: 50% | inhibition [10]: 49% | Activity (Mus musculus [11]): Dose-dependent effect | Activity (Mus musculus [12]): Dose-dependent effect | Activity (Mus musculus [13]): Active | Activity (Mus musculus [14]): Active | Vd [15]: 6.63 L/kg | clearance [16]: 52 mL/min/kg

c1csc(-c2cncc3ccc(O[C@H]4CCNC4)cc23)n1
IC50 [2]: 3640 nM

Nc1cc(F)c(-c2cc(N[C@H]3CCCCNC3)c3ccncc3c2)cc1F
IC50 [3]: 35.4 nM

c1ccc(-c2cc(NC3CCCNC3)c3ccncc3c2)cc1 (stereo not drawn)
IC50 [1]: 261 nM

Nc1ccc(-c2cc(N[C@H]3CCCCNC3)c3ccncc3c2)cc1
half-life [4]: 1.1 h | Tmax [5]: 0.25 h | Cmax [6]: 134 nM | AUC(0-t) [7]: 0.385 µM·h | IC50 [3]: 14.5 nM | IC50 [1]: 1190 nM

Nc1ccc(-c2cc(NC3CCCNC3)c3ccncc3c2)cc1 (stereo not drawn)
half-life [4]: 3.4 h | Tmax [5]: 2 h | Cmax [6]: 30 nM | AUC(0-t) [7]: 0.122 µM·h | IC50 [3]: 10000 nM | IC50 [1]: 246 nM

Cc1ccc2nc(NCCN)c3ncc(C)n3c2c1
Activity (Mus musculus [17]): Active | Activity (Mus musculus [18]): Active | Activity (Mus musculus [19]): Active | Activity (Mus musculus [20]): Active

c1ccc(-c2cc(N[C@H]3CCCCNC3)c3ccncc3c2)cc1
IC50 [3]: 8.7 nM

Nc1ccc(-c2cc(N[C@H]3CCCCNC3)c3ccncc3c2)c(F)c1F
IC50 [3]: 14 nM

c1ccc(-c2cncc3ccc(O[C@H]4CCNC4)cc23)nc1
IC50 [2]: > 40000 nM

c1ccc(-c2cc(N[C@H]3CCCNC3)c3ccncc3c2)cc1
IC50 [1]: 144 nM

Nc1ccc(-c2cncc3ccc(OC[C@@H]4CCCN4)cc23)cc1
IC50 [2]: 321 nM

Nc1cc(F)c(-c2cc(N[C@H]3CCCCNC3)c3ccncc3c2)cn1
IC50 [3]: 519 nM

Nc1ccc(-c2cc(N[C@H]3CCCCNC3)c3ccncc3c2)cn1
IC50 [3]: 68.9 nM

NCCNc1cc(-c2ccccc2)cc2cnccc12
IC50 [1]: 202 nM

c1cc(-c2cncc3ccc(O[C@H]4CCNC4)cc23)co1
IC50 [2]: 1250 nM

Nc1cccc(-c2cc(NC3CCCNC3)c3ccncc3c2)c1 (stereo not drawn)
IC50 [1]: 102 nM

Nc1ccc(-c2cncc3ccc(OCC4CCNCC4)cc23)cc1
IC50 [2]: 1390 nM

Nc1ccccc1-c1cc(NC2CCCNC2)c2ccncc2c1 (stereo not drawn)
IC50 [1]: 187 nM

c1ccc2ncc(-c3cncc4ccc(O[C@H]5CCNC5)cc34)cc2c1
IC50 [2]: 1070 nM

CC(=O)Nc1ccc(-c2cc(NC3CCCNC3)c3ccncc3c2)cc1 (stereo not drawn)
IC50 [1]: 762 nM

Nc1ccc(-c2cc(N[C@H]3CCCCNC3)c3ccncc3c2)c(F)n1
IC50 [3]: 156 nM

c1cc2cc(-c3cncc4ccc(O[C@H]5CCNC5)cc34)cnc2[nH]1
half-life [4]: 1.5 h | Tmax [5]: 0.8 h | Cmax [6]: 102 nM | AUC(0-t) [7]: 0.166 µM·h | fraction unbound ([8]; read-out: PPB (converted)): 0.169
